What was measured:
[1] = molecular target: BSA (Bos taurus, UniProt P02769); test: Absorbance/emission spectra, fluorescence enhancement and quantum yield of dyes in solution +/- BSA (Example 21); type: physicochemical, bovine; settings: for ABS λ max, BSA / EM λ max, BSA / FE (fluorescence enhancement, BSA) / Quantum Yield (BSA): 150 μg/mL BSA; for ABS λ max, BSA / EM λ max, BSA / ABS λ max, unbound / EM λ max, unbound: 10 mM Tris-HCl, pH 7.5, 0.05% SDS; for FE (fluorescence enhancement, BSA): 0.05% SDS, at emission maxima; for FE (fluorescence enhancement, BSA) / Quantum Yield (BSA): 470 nm excitation; for Quantum Yield (BSA): relative to fluorescein in 0.1 M NaOH; for ABS λ max, unbound / EM λ max, unbound: dye without BSA
Protocol: A particular dye of this invention is generally selected for a particular assay using one or more of the following criteria: sensitivity to poly(amino acids), insensitivity to the presence of nucleic acids, dynamic range, photostability, staining time, and spectral properties. […] Although the fluorescence enhancements and quantum yields are low to moderate in solution, some are significant relative to the long wavelength emission maxima (see Table 1 and Example 21).
Measurements are performed using −1 μM dye+/−150 μg/mL BSA in 10 mM Tris-HCl, pH 7.5,+0.05% SDS with a 2.0 mL sample volume. Fluorescence enhancements are calculated at emission maxima in a standard fluorometer using 470 nm excitation. Fluorescence quantum yields are determined relative to fluorescein (in 0.1 M NaOH), using 470 nm excitation.

[2] = test system: amino acid homo- and hetero-polymers; test: Dye staining of amino acid homo- and hetero-polymers copolymerized into polyacrylamide gel discs; settings: gel discs with 0.1% SDS; no asterisk = moderate
Excerpt: The specificity of protein detection of the present method can be compared to that of silver, CBB, SYPRO Orange dye and SYPRO Red dye staining for a variety of synthetic poly(amino acids) copolymerized into a polyacrylamide gel matrix. To do this, homopolymers of L-arginine, asparagine, histidine, lysine, aspartate, glutamate, alanine, glycine, isoleucine, leucine, methionine, serine, threonine, tryptophan, tyrosine and proline are copolymerized into 15% T, 2.6% C polyacrylamide gels at a concentration of […]. Except when indicated, 0.1% sodium dodecyl sulfate is included in the polyacrylamide solution as well. The amino acid heteropolymers, poly(glutamate, alanine, tyrosine), poly(glutamate, tyrosine), poly(lysine, tyrosine), poly(glutamate, lysine, tyrosine), and poly(arginine, tyrosine) are copolymerized into polyacrylamide gels in an identical manner as the homopolymers. Blank gels containing no polymer are prepared for reference. The co-polymerized gels are cut into discs using the large end of a 1000 microliter pipet tip (Sorenson Bioscience, Inc., West Salt. Lake City, Utah) and stained in Falcon 48 well flat bottom tissue culture plates (Becton-Dickinson, Franklin Lakes, N.J.) on an orbital shaker operating at 50 RPM. Gel discs are quantified on a Roche Lumi-Imager system (Indianapolis, Ind.) and classified into three groups based upon staining intensity (strong, moderate, or weak staining).

[3] = test system: broad-range protein molecular weight markers; test: Staining of broad-range molecular weight protein standards in SDS-polyacrylamide gels (Example 22, FIG. 2, 3); settings: regardless of the buffer
Protocol: (§1) FIG. 2: Intensity profile comparison after staining broad-range protein molecular weight markers with SYPRO Orange dye in 7% acetic acid and phosohate-buffered saline. FIG. 2A.) Profile obtained with SYPRO Orange dye in 7% acetic acid. FIG. 2B.) Profile obtained with SYPRO Orange dye in 50 mM sodium phosphate, 150 mM sodium chloride, pH 7.0. Grey scale values of the fluorescence signals were inverted prior to obtaining the traces to facilitate evaluation of the peaks.
as §1, with “3:” for “2:”, “Compound 9” for “SYPRO Orange dye”, “phosphate-buffered” for “phosohate-buffered”, “3A.)” for “2A.)”, “3B.)” for “2B.)”
SDS-polyacrylamide gel electrophoresis is performed by standard methods utilizing 4% T, 2.6% C stacking gels, pH 6.8 and 15% T, 2.6% C separating gels, pH 8.8. % T is the total monomer concentration expressed in grams per 100 mL and % C is the percentage crosslinker. A staining solution of Compound 9 is prepared by diluting a stock solution that 5 is […] dye in DMSO in either 7.5% acetic acid or 50 mM Na2HPO4, 150 mM NaCl, pH 7.0 with vigorous mixing. Alternatively, a wide range of buffers are compatible with staining, including but not limited to formate, pH 4.0; citrate, pH 4.5; acetate, pH 5.0; MES, pH 6.0;
imidazole, pH 7.0; HEPES, pH 7.5; Tris acetate, pH 8.0; Tris-HCl, pH 8.5; Tris borate, 20 mM EDTA, pH 9.0; and bicarbonate, pH 10.0. Buffers should be prepared as 50-100 mM 10 solutions containing about 150 mM NaCl. Approximately 50-75 mL of staining solution is used for a typical mini-gel (5 cm×9 cm×1 mm). The gel is placed into the staining solution and the container is covered with aluminum foil to protect the dye from bright light. The gel is gently agitated for at least 30 minutes at room temperature using an orbital shaker (50:RPM). After staining, the gel is briefly dipped in water and visualized on a UV light box. […] As little as 1 ng of protein may be visualized when the fluorescent image is recorded by photography using a cellophane 490-nm long pass filter. […] In the latter buffer, protein bands are barely detectable above background fluorescence with these latter dyes.

Sequence of BSA (P02769 25-607): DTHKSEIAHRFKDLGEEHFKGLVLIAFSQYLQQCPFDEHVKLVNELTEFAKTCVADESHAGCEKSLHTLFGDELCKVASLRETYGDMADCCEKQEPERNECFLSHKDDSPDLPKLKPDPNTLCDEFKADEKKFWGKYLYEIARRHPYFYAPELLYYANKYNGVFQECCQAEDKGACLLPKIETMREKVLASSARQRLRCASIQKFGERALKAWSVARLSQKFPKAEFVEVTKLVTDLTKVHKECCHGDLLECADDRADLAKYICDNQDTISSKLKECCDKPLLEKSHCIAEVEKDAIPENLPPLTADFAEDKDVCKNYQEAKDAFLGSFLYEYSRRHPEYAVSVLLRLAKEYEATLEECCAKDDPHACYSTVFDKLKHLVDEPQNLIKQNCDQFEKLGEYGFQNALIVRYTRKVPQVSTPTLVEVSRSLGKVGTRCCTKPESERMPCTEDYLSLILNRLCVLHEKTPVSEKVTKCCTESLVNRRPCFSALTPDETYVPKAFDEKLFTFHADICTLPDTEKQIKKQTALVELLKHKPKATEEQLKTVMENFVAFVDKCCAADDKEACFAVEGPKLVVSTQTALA

ABS λ max, BSA [1] [nm]	EM λ max, BSA [1] [nm]	FE (fluorescence enhancement, BSA) [1] [fold]	Quantum Yield (BSA) [1]	ABS λ max, unbound [1] [nm]	EM λ max, unbound [1] [nm]	Molecule	Staining intensity, Glu:Lys:Tyr heteropolymer [2]	Staining intensity, Ile homopolymer [2]	Staining intensity, Lys homopolymer [2]	Staining intensity, Lys:Tyr heteropolymer [2]	Appearance of stained proteins on UV light box [3]	Staining intensity, Arg homopolymer [2]	Staining intensity, Arg:Tyr heteropolymer [2]	Staining intensity, His homopolymer [2]
491	623	25	0.17	480	676	CCCCc1cc(/C=C/c2ccc3c(c2)c2ccccc2n3CC)c2ccccc2[n+]1-c1ccccc1.[Cl-] [Compound 16]	–	–	–	–	–	–	–	–
502	590	3.0	0.01	503	611	CCn1c2ccccc2c2cc(/C=C/C3=[N+](CCCCCC(=O)O)c4ccc(S(=O)(=O)[O-])cc4C3(C)C)ccc21 [Compound 18]	–	–	–	–	–	–	–	–
464	576	15	0.08	448	638	CCn1c2ccccc2c2cc(/C=C/c3sc4ccccc4[n+]3CCCS(=O)(=O)[O-])ccc21 [Compound 14]	–	–	–	–	–	–	–	–
–	~610	2.5	0.04	–	679	CCn1c2ccccc2c2cc(/C=C/c3ccc4cc(OC)ccc4[n+]3C)ccc21 [Compound 17]	–	–	–	–	–	–	–	–
–	553	15	0.24	–	588	CCn1c2ccccc2c2cc(/C=C/c3cc[n+](CCCS(=O)(=O)[O-])cc3)ccc21 [Compound 13]	–	–	–	–	very bright yellow bands against an orange background	–	–	–
469	591	52	0.25	468	670	O=S(=O)([O-])CCCC[n+]1ccc(/C=C/c2ccc3c(c2)c2ccccc2n3-c2ccccc2)c2ccccc21 [Compound 15]	–	–	–	–	–	–	–	–

Second part, the molecule before the results:

Molecule	ABS λ max, BSA [1] [nm]	EM λ max, BSA [1] [nm]	FE (fluorescence enhancement, BSA) [1] [fold]	Quantum Yield (BSA) [1]	ABS λ max, unbound [1] [nm]	EM λ max, unbound [1] [nm]	Staining intensity, Glu:Lys:Tyr heteropolymer [2]	Staining intensity, Ile homopolymer [2]	Staining intensity, Lys homopolymer [2]	Staining intensity, Lys:Tyr heteropolymer [2]	Appearance of stained proteins on UV light box [3]	Staining intensity, Arg homopolymer [2]	Staining intensity, Arg:Tyr heteropolymer [2]	Staining intensity, His homopolymer [2]
CCn1c2ccccc2c2cc(/C=C/c3ccc4ccccc4[n+]3CCCCS(=O)(=O)[O-])ccc21 [Compound 12]	453	587	34	0.10	441	679	–	–	–	–	–	–	–	–
Silver	–	–	–	–	–	–	Tyr*	Ile	Lys*	Lys:Tyr*	–	–	–	–
CCOCC(=O)CCC[n+]1ccc(/C=C/c2ccc3c(c2)c2ccccc2n3CC)c2ccccc21.[Br-] [Compound 10]	492	612	110	0.21	468	~700	–	–	–	–	–	–	–	–
CCn1c2ccccc2c2cc(/C=C/c3cc[n+](CCCC(=O)O)c4ccccc34)ccc21.[Cl-] [Compound 11]	483	609	104	0.21	475	~700	–	–	–	–	–	–	–	–
CCOc1ccc(Nc2ccc(C(=C3C=CC(=[N+](CC)Cc4cccc(S(=O)(=O)[O-])c4)C=C3)c3ccc(N(CC)Cc4cccc(S(=O)(=O)[O-])c4)cc3)cc2)cc1.[Na+] [Coomassie Blue-R]	–	–	–	–	–	–	Glu:Lys:Tyr*	Ile	Lys*	Lys:Tyr*	–	Arg*	Arg:Tyr*	His

Reference: patent US6579718B1, “Carbazolylvinyl dye protein stains” (Molecular Probes, Inc., priority 2000, dated 2003)
